Laboratory results published in patent US9999224B2, “Antimicrobial reverse thermal gel and methods of forming and using same” (The Regents of the University of Colorado, a body corporate, priority 2014, dated 2018).

Tested on: cells
Assay: MTT assay, cytotoxicity / biocompatibility (FIG. 12)
Assay type: cell-based
Details: cells plated on dried polymer layer; Q-PEI-PNIPAAm 20% conjugation at 1, 3 and 5%; negative control growth medium, positive control 5% DMSO
Method: FIG. 12 illustrates Cytotoxicity Tests of Q-PEI-PNIPAAm. An MTT assay was conducted to assess the biocompatibility of Q-PEI-PNIPAAm. Several methods were used to conduct this test. Previously, the Q-PEI-PNIPAAm polymer had been placed on top of the cells mixed with the media; however, due to the gelling nature of the sample the polymer was not in contact with the cells for long period of time. Due to this, the methodology was modified and the cells were plated on top of the polymer and then trypsinized and re-plated before conducting the test; however, trypsinizing, centrifuging and re-plating cells can lead to higher variability in number of cells per well and since the cells were not left to attached on the plates for long enough the results may be inaccurate. Finally the polymer was dissolved in alcohol, left to evaporate and then the cells were plated on top. Since the MTT measures absorbance, blanks were required for each sample. However, the layer of polymer on the plate needed to be very thin so the polymer concentration tested was 1, 3 and 5%. […] Chlorhexidine 2%, a common skin preparation solution was tested as a control.
A statistically significant difference was observed between the experimental samples, negative and positive control (cells cultured with 5% DMSO) (***indicates […], and **indicates p<0.05.).

[H]/N=C(\N/C(=N/[H])NCCCCCCNC(=N)NC(=N)Nc1ccc(Cl)cc1)Nc1ccc(Cl)cc1 [chlorhexidine]
Metabolic activity of cells (MTT absorbance) versus controls: the same difference was obtained
